Source: patent US6458802B1, “Antidepressant azaheterocyclymethyl derivatives of 2,3-dihydro-1,4-dioxino [2,3-f]quinoline” (Wyeth, priority 2001, dated 2002)
Counter-ions that a name gives are not always drawn. Like-named read-outs stand apart in the source and are kept apart here.

Columns and labels:
[1] = target: T1, human 5HT1A receptors (Homo sapiens, UniProt P08908); assay: [3H] 8-OH-DPAT displacement from the 5HT1A serotonin receptor (transfected CHO cells); format: binding
T1 construct: expressed in transfected cells; host or cells: CHO cells
T1 sequence (P08908 1-422): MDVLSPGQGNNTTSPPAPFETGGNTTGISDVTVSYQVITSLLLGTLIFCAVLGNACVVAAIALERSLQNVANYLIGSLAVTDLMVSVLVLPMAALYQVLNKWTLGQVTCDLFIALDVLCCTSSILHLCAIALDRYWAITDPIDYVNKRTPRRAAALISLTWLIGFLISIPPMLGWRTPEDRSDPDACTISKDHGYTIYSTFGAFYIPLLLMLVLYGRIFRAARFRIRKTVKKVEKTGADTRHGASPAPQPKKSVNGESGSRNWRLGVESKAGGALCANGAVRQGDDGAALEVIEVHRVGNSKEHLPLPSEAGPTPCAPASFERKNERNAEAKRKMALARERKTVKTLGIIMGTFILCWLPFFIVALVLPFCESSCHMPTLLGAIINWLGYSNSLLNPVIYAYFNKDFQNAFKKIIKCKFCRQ
Excerpt: High affinity for the serotonin 5HT1A receptor was established by testing the claimed compound's ability to displace [^3H] 8-OH-DPAT (dipropylamino-tetralin) from the 5HT1A serotonin receptor following a modification of the procedure of Hall et al., J. Neurochem. 44, 1685 (1985) which utilizes CHO cells stably transfected with human 5HT1A receptors.

[2] = target: T2, serotonin transporter (Rattus norvegicus, UniProt P31652); assay: 3H-paroxetine displacement, affinity for the serotonin transporter; format: binding
T2 construct: displace ^3H-paroxetine from male rat frontal cortical membranes; from tissue; host or cells: male rat frontal cortex membranes

[3] = target: T3, cloned human 5HT1A receptors (Homo sapiens, UniProt P08908); assay: 35S-GTPγS binding assay, antagonist activity at 5HT1A receptors; format: biochemical; details: for IC50: 35S-GTPγS binding, reversal of the effects of the standard agonist 8-OH-DPAT, membranes with cloned human 5HT1A receptors, read-out: 5HT1A Function IC50; for Emax: maximum inhibitory effect in 35S-GTPγS binding versus 8-OH-DPAT, read-out: 5HT1A Function (Imax)
T3 construct: expressed in transfected cells
T3 sequence (P08908 1-422): T1 sequence (P08908 1-422)
Procedure: Antagonist activity at 5HT1A receptors was established by using a ^35S-GTPγS binding assay similar to that used by Lazareno and Birdsall (Br. J. Pharmacol. 109: 1120, 1993), in which the test compound's ability to affect the binding of 35S-GTPγS to membranes containing cloned human 5HT1A receptors was determined. Agonists produce an increase in binding whereas antagonists produce no increase but rather reverse the effects of the standard agonist 8-OH-DPAT. The test compound's maximum inhibitory effect is represented as the 1max, while its potency is defined by the IC50.

[4] = displacement of [3H] 8-OH-DPAT, CHO cells stably transfected with human 5HT1A receptors, read-out: 5HT1A Receptor Affinity KI

T2 sequence (P31652 whole entry): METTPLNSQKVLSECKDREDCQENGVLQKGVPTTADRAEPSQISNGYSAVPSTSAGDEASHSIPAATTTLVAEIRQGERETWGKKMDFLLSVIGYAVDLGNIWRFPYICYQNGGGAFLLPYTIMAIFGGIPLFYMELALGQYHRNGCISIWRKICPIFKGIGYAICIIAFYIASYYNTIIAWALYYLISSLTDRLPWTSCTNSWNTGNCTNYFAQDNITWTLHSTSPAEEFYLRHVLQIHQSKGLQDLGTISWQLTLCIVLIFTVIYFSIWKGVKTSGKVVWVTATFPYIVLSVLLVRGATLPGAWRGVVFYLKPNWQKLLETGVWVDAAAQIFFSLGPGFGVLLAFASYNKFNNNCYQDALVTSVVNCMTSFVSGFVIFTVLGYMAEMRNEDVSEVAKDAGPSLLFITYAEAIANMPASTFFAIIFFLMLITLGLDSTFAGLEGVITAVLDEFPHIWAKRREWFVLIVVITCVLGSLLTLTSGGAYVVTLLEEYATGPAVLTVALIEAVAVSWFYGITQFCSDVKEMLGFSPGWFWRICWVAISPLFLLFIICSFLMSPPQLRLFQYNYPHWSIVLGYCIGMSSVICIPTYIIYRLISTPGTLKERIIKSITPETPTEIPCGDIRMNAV

SMILES	melting point [°C]	Ki [1] [nM]	Ki [2] [nM]	IC50 [3] [nM]	Emax [3] [%]	Ki [1, 4] [nM]	Ki ([2]; displacement of 3H-paroxetine from male rat frontal cortical membranes, read-out: 5-HT Transporter Affinity KI) [nM]
CCc1ccc2c3c(ccc2n1)OCC(CN1CC=C(c2c[nH]c4ccccc24)CC1)O3 (stereo not drawn) [Example 13, 8-Ethyl-2-[(4-(1H-indol-3-yl)-3,6-dihydropyridin-1(2H)-yl)methyl]-2,3-dihydro[1,4]dioxino[2,3-f]quinoline]	190	6.82	4.9	162	88.7		
Cc1ccc2c3c(ccc2n1)OCC(CN1CC=C(c2c[nH]c4ccc(F)cc24)CC1)O3 (stereo not drawn) (as salt: fumarate) (hydrate or solvate) [Example 11, 2-[4-(5-Fluoro-1H-indol-3-yl)-3,6-dihydro-2H-pyridin-1-ylmethyl]-8-methyl-2,3-dihydro[1,4]dioxino[2,3-f]quinoline]	198 to 199						
Fc1cc2c(c3cccnc13)OC(CN1CC=C(c3c[nH]c4ccccc34)CC1)CO2 (stereo not drawn) [Example 16, 6-Fluoro-2-[4-(1H-indol-3-yl)-3,6-dihydro-2H-pyridin-1-ylmethyl]-2,3-dihydro[1,4]dioxino[2,3-f]quinoline]	215		21			55.9	
Cc1ccc2c3c(ccc2n1)OCC(CN1CC=C(c2c[nH]c4ccccc24)CC1)O3 (stereo not drawn) [Example 9, 2-[4-(1H-Indol-3-yl)-3,6-dihydro-2H-yridin-1-ylmethyl]-8-methyl-2,3-dihydro[1,4]dioxino[2,3-f]quinoline]	210	3.02	2.34	56.7	98.3		
Cc1ccc2c3c(ccc2n1)OC[C@H](CN1CC=C(c2c[nH]c4c(F)cccc24)CC1)O3 [Example 21]	205 to 221	7.75	2.94	51.7	100		
Cc1ccc2[nH]cc(C3=CCN(CC4COc5ccc6nc(C)ccc6c5O4)CC3)c2c1 (stereo not drawn) (as salt: fumarate) (hydrate or solvate) [Example 22, 2-[4-(5-Methyl-1H-indol-3-yl)-3,6-dihydro-2H-pyridin-1-ylmethyl]-8-methyl-2,3-dihydro[1,4]dioxino[2,3-f]quinoline]	150 to 155						
Cc1ccc2c3c(ccc2n1)OCC(CN1CC=C(c2c[nH]c4cc(F)ccc24)CC1)O3 (stereo not drawn) (as salt: oxalate) (hydrate or solvate) [Example 10, 2-[4-(6-Fluoro-1H-indol-3-yl)-3,6-dihydro-2H-pyridin-1-ylmethyl]-8-methyl-2,3-dihydro[1,4]dioxino[2,3-f]quinoline]	140 to 143						
Cc1ccc2c3c(ccc2n1)OCC(CN1CCC(Cc2c[nH]c4ccc(F)cc24)CC1)O3 (stereo not drawn) [Example 8, 2-({4-[(5-Fluoro-1H-indol-3-yl)methyl]piperidin-1-yl}methyl)-8-methyl-2,3-dihydro[1,4]dioxino[2,3-f]quinoline]	91 to 92					7.24	2.56
NC(=O)c1ccc2[nH]cc(C3=CCN(C[C@H]4COc5ccc6ncccc6c5O4)CC3)c2c1 (as salt: fumarate) (hydrate or solvate) [Example 6, 3-[1-(2,3-Dihydro[1,4]dioxino[2,3-f]qiuinolin-2-ylmethyl)-1,2,3,6-tetrahydropyridin-4-yl]-1H-indole-5-carboxylic Acid Amide]	219						
Cc1cnc2ccc3c(c2c1)OC(CN1CC=C(c2c[nH]c4ccccc24)CC1)CO3 (stereo not drawn) [Example 23, 2-[4-(1H-Indol-3-yl)-3,6-dihydro-2H-pyridin-1-ylmethyl]-9-methyl-2,3-dihydro[1,4]dioxino[2,3-f]quinoline]	211 to 213		28			7.76	
Fc1ccc2[nH]cc(CC3CCN(C[C@H]4COc5ccc6ncccc6c5O4)CC3)c2c1 (as salt: oxalate) [Example 3]	184						
COc1ccc2[nH]cc(C3=CCN(C[C@H]4COc5ccc6ncccc6c5O4)CC3)c2c1 (as salt: fumarate) [Example 1]	170						
